Literature values in US8383585B2, “Biomarkers for cardiodiabetes” (IKFE Institut fur Klinische Forschung und Entwicklung GmbH, priority 2008, dated 2013).

Tests used:
Design in all cases: key: ↑: An up arrow indicates an increase in biomarker levels; ↓: a down arrow indicates a decrease; ◯: “O” indicates substantially no change
Conditions in all cases: effect on biomarker level in a subject
hsCRP = test system: hsCRP
intact proinsulin = test system: intact proinsulin
adiponectin = test system: adiponectin

Compound	hsCRP (hsCRP)	intact proinsulin (intact proinsulin)	adiponectin (adiponectin)
CN(C)C(=N)N=C(N)N [metformin]	◯	↓	↑
insulin	◯	↓	◯
